Peptide text beside a SMILES is read from it.
Compound | melting point [°C]
O=c1[nH]c(=O)n(C2CC(O)C(CO)O2)cc1I (stereo not given) | 263
CC1NC(C)SC(C)S1 (stereo not given) | 46
ClC(Br)C(Cl)Br (stereo not given) | -26
Oc1c(F)c(F)c2c(F)c(F)c(F)c(F)c2c1F | 120 to 124
CCCSc1sc(C(=O)OCC)c2c1C(=O)CCC2 | 136 to 139
NC(=S)c1ccc(F)c(Cl)c1 | 129 to 131
C#CC(C)OC(=O)Nc1cccc(Cl)c1 (stereo not given) | 45.5
Cc1cc(C(=O)O)ccc1Br | 216
CCC(OC(N)=O)C1CCCCC1 (stereo not given) | 128
CCOc1cc2c(cc1OCC)C(C)=NCC2 | 68 to 71
CC(C)[C@@H]1COC(=O)N1 | 70 to 73
CCOC(=O)C(C#N)=NNc1ccc(Cl)cc1 | 161 to 162
CCCC(=O)Cl | -89
COP(=S)(OC)Oc1cc(Cl)c(I)cc1Cl | 76
CC(C)OC(=O)COc1cc(Cl)c(Cl)cc1Cl | 45
N#Cc1c(F)c(F)c(C#N)c(F)c1F | 198
CN1CCOc2cc(C=O)ccc21 | 70 to 71
Cc1cc(C)n(C(N)=O)n1 | 113 to 115
NCC1OC(OC2C(N)CC(N)C(O)C2OC2OC(CO)C(O)C2O)C(N)C(O)C1O (stereo not given) | 194
CCCCCCCCCCCCCC=CC(O)C(CO)NC(C)=O (stereo not given) | 93 to 96
Cc1nc(-c2ccc(Cl)cc2)sc1C(=O)CBr | 120 to 121

Compound | melting point [°C]
NCC(=O)NCC(=O)NCC(=O)NCC(=O)O (H-GGGG-OH) | 300
CCC(CO)NC(=O)C1C=C2c3cccc4c3c(cn4C)CC2N(C)C1 (stereo not given) | 195
CC1CCCC(C)C1O (stereo not given) | 32.5
CC12CCCCC1CCC1C2CCC2(C)C1CCC2(O)C#CCl (stereo not given) | 163
O=C(O)/C=C/c1ccc(F)cc1F | 214 to 218
Nc1cc(Cl)cc(Cl)c1O | 97
CC1(C)OCC2OC3(C(=O)O)OC(C)(C)OC3C2O1 (stereo not given) | 92
O=Cc1cccc2c1OCCO2 | 62 to 63
CN(C)c1ccc(NC(N)=S)cc1 | 190
Nc1cc(Cl)c2nonc2c1[N+](=O)[O-] | 276 to 277
Nc1c(Br)cc(Br)c(F)c1C(=O)O | 235 to 238
COC(=O)c1cc([N+](=O)[O-])cc([N+](=O)[O-])c1 | 110
C=CCO | -129
O=C(OOC(=O)c1ccc(Cl)cc1Cl)c1ccc(Cl)cc1Cl | 106
OCC1OC(O)CC(O)C1O (stereo not given) | 150
COc1ccc(OC)c(C=C[N+](=O)[O-])c1 | 114 to 119
COC(=O)C=Cc1ccc(Cl)cc1 | 76
O=C1NC(=O)C(=Cc2cccc(C=C3C(=O)NC(=O)NC3=O)c2)C(=O)N1 | 340
CC1(C)Cc2cccc(C=O)c2O1 | 81 to 83
COc1ccc2c(CC(=O)O)coc2c1 | 123 to 124
O=C(O)c1cccc2c1OCCCO2 | 68 to 70

Compound | melting point [°C]
CNC(=O)C(=NOC)c1ccccc1Oc1ccccc1 | 88
CCCCCCC1CCCCC1 | -43
Fc1cc(Br)ccc1Br | 34
CC(=O)OCC(=O)C1CCC2C3CC=C4CC(O)CCC4(C)C3CCC12C (stereo not given) | 184
N#Cc1ccc(CN2CCCCC2)cc1 | 38 to 40
CCc1ccsc1 | -89.1
COc1ccc(C(=O)O)c(O)c1 | 157 to 159
O=C(O)c1c2c(nc3ccc(F)cc13)CCCCC2 | 289 to 291
OCc1ccc(OC2CCOCC2)cc1 | 81.5 to 82.5
CC1(C)OC2CC3C4CC(F)C5=CC(=O)C=CC5(C)C4(F)C(O)CC3(C)C2(C(=O)CO)O1 (stereo not given) | 266
CNC(=S)N(C)C | 126 to 127
CCNC=C(C(=O)OCC)C(=O)c1cnc(Cl)c(F)c1 | 122 to 124
OCC(CO)(CO)NCCCNC(CO)(CO)CO | 169
COC(=O)c1ccc2c(C=O)cn(C(=O)OC(C)(C)C)c2c1 | 214 to 215
O=C(O)c1cc(F)c(Cl)cc1Cl | 141 to 144
CC12CCC3C(CCC4=CC(=O)C=CC43C)C1CCC(=O)O2 (stereo not given) | 218
O=C(Nc1c[nH]c(=O)[nH]c1=O)C(F)(F)C(F)(F)C(F)(F)C(F)(F)C(F)(F)C(F)(F)C(F)(F)C(F)(F)F | 250 to 252
OCc1cccc(CN2CCCCC2)c1 | 67 to 69
O=C(CO)CO | 90
Cc1nn(C)c(C(=O)O)c1Br | 225 to 226
N#CC1=C(N)n2nc(C(F)(F)F)nc2NC1c1ccco1 (stereo not given) | 260

Compound | melting point [°C]
CCCOC(=O)C(=O)OCCC | -44.3
COc1cc(C(=O)O)c([N+](=O)[O-])cc1OC | 195 to 197
CCOC(=O)Nc1ccc2cc3ccc4c(c3nc2c1)COCN4C(=O)OCC | 174
CC(=O)N(C(C)=O)c1cc(C=CC(=O)O)ccc1C=CC(=O)O | 310 to 315
FC(F)(F)C(Cl)Cl | -107
Nc1ccc([N+](=O)[O-])cc1C(F)(F)F | 92
C=Cc1cccc(CC)c1 | -101
C[C@]12C=CC(=O)C=C1C(=O)C[C@@H]1[C@@H]2CC[C@@]2(C)[C@H]1CCC21OCCO1 | 207
Cc1cc(C)cc(OCC2CNC(=O)O2)c1 (stereo not given) | 122
O=[N+]([O-])c1cccnc1 | 40
Fc1cc(Cl)cc(CBr)c1 | 25 to 30
CC1(C)OC(C(O)CO)C(C(O)CO)O1 (stereo not given) | 87
COc1cc(Cl)nc(OC)n1 | 74 to 76
O=C(O)Cc1cc(F)ccc1F | 125
C=C(C)[C@H]1CC=C(C)C(=O)C1 | 89
CC(C)CC(C)(C)CC(C)(C)CC(C)(C)C | -98
CS(=O)(=O)CCCN=C=S | 47.5
CCOc1ccc2cc(O)c(O)cc2c1 | 132
N#Cc1c(N)sc2c1CCCC2 | 142
NC(=NO)c1cc(C(F)(F)F)cc(C(F)(F)F)c1 | 131 to 133

More lines, now with the values ahead:

melting point [°C] | Compound
200 to 201 | Cc1nc(-c2cccc(C(=O)O)c2)cs1
84 | O=[N+]([O-])c1cccc(SSc2cccc([N+](=O)[O-])c2)c1
138 to 141 | N#CN=CNc1ccccc1
39 | BrCCOc1ccccc1
297 to 299 | CC1=Nc2ccccc2Nc2c1c(=O)n(-c1ccccc1)c1ccccc21
191 | COc1cc(/C=C/c2ccc([N+](=O)[O-])cc2[N+](=O)[O-])ccc1O
169 | Cc1ccc(-c2cc(-c3ccccn3)nc(-c3ccccn3)c2)cc1
68 | NNC(=O)OCc1ccccc1
182 | NC(=O)Cc1nc(-c2ccc(F)cc2)cs1
105 to 108 | NS(=O)(=O)c1ccc(Sc2cccs2)s1
117 | CC1=Nc2ccc3ccccc3c2C1(C)C
108 | O=C(OCC(=O)N1CCCCCC1)c1ccccc1
164 | O=C(O)c1cccc(C(=O)c2ccccc2)c1
86 to 87 | O=S(=O)(Cl)c1csc(C(F)(F)F)c1-c1ccccc1
112 | C/C(=N\NC(N)=O)C(=O)C(C)Cc1ccccc1 (stereo not given)
193 | O=C(C1=NOC2C(=O)N(c3ccc(F)cc3)C(=O)C12)c1ccc2ccccc2c1 (stereo not given)
75 | c1cnc2cccnc2c1
219 to 221 | NNC(=O)c1cc2cc(OCc3ccccc3)ccc2[nH]1
107 | c1ccc(-n2nc3ccccc3n2)cc1
180 | O=C(O)c1nc(O)n(-c2ccccc2)n1
57 to 58 | CCOC(=O)c1cc(-c2ccco2)nn1C
205 to 207 | N#C/C(=C\c1cccs1)c1nc(-c2cccc3ccccc23)cs1
194 | NNC(=O)c1ccc(-c2ccccc2)cc1
133 to 134 | c1ccc(-c2nnc(NC3=NCCN3CN3CCCCC3)s2)cc1

melting point [°C] | Compound
128 | Cc1cc(=O)n(-c2ccccc2)[nH]1
316 | Nc1nc(N)c2nc(-c3ccccc3)c(N)nc2n1
150 | Nc1nc(-c2ccccc2)cs1
181 to 183 | O=C(COc1ncn(-c2ccc(Cl)cc2)n1)NNC(=S)Nc1ccc(F)cc1
153 to 154 | O=C(CCl)N[C@@H](Cc1ccc(O)cc1)C(=O)O
226 | C(=N\c1ccc(-c2ccc(/N=N/c3ccccc3)cc2)cc1)/c1ccccc1
236 to 238 | C/C(=N\c1ccc(C(=O)O)cc1)c1c(O)c2ccccc2n(-c2ccccc2)c1=O
214 to 218 | O=C(O)Cn1c(CN2CCOCC2)nc2ccccc21
104 to 107 | CC(C)Cc1ccc(C(=O)C=Cc2cccc([N+](=O)[O-])c2)cc1
199 | CC(=O)Nc1ccc(N(Nc2ccccc2)C(C)=O)cc1
130 | COc1cc(O)c(C(=O)c2ccccc2)c(O)c1
80 | COc1ccccc1C1CNCCN1 (stereo not given)
140 | O=C(O)CONC(=O)c1ccccc1
222 to 223 | COc1ccc(C=C2SC(=S)N(CN3CCCCC3)C2=O)cc1
114 | CCOC(=O)Nc1ccc(NCc2ccc(F)cc2)nc1N
200 to 201 | CC(=O)N(C)c1cccc(-c2ccc3nnc(C)n3n2)c1
83.5 | COc1ccc(C(=O)CC(=O)c2ccc(C(C)(C)C)cc2)cc1
254 | O=C(O)Cc1ccc(CC(=O)O)cc1
180 | O=C1/C(=N/Nc2ccc(Cl)cc2)C(C(F)(F)F)=NN1c1ccccc1
125 to 129 | NC(=O)C(N)c1ccccc1 (stereo not given)
216 to 218 | NNC(=O)CN1c2ccccc2Sc2ccccc21
117 to 118 | COC(=O)c1ccc(-c2cccs2)nc1
105 to 107 | CC(=O)c1ccc(OCc2ccc(F)cc2)c([N+](=O)[O-])c1
